From the NIST ThermoML archive (doi:10.1021/acs.jced.5b00934)

Conditions: Liquid, Vibrating tube method

CCC(C)O (configuration not stated) [butan-2-ol]
Conditions	mass density [kg/m3]
283.15 K, 99 kPa	814.7
283.15 K, 306 kPa	814.8
283.15 K, 529 kPa	815
283.15 K, 909 kPa	815.3
283.15 K, 1030 kPa	815.4
283.15 K, 2005 kPa	816.1
283.15 K, 2987 kPa	816.8
283.15 K, 4975 kPa	818.2
283.15 K, 6996 kPa	819.6
283.15 K, 9019 kPa	821
283.15 K, 10037 kPa	821.7
283.15 K, 12013 kPa	823
283.15 K, 14917 kPa	824.9
283.15 K, 17956 kPa	826.9
283.15 K, 20028 kPa	828.2
283.15 K, 21997 kPa	829.4
283.15 K, 24984 kPa	831.2
283.15 K, 27996 kPa	833
283.15 K, 29889 kPa	834.1
283.15 K, 31914 kPa	835.3
283.15 K, 33047 kPa	835.9
283.15 K, 33065 kPa	835.9
283.15 K, 34001 kPa	836.4
283.15 K, 34979 kPa	836.9
283.15 K, 40002 kPa	839.7
283.15 K, 42074 kPa	840.9
283.15 K, 44993 kPa	842.4
283.15 K, 48024 kPa	844
283.15 K, 50047 kPa	845.1
283.15 K, 52032 kPa	846.1
283.15 K, 55041 kPa	847.6
283.15 K, 57909 kPa	849.1
283.15 K, 60034 kPa	850.1
283.15 K, 62037 kPa	851.1
283.15 K, 65102 kPa	852.6
283.15 K, 66079 kPa	853
283.16 K, 37912 kPa	838.6
288.15 K, 99 kPa	810.8
288.15 K, 298 kPa	811
288.15 K, 511 kPa	811.1
288.15 K, 912 kPa	811.4
288.15 K, 993 kPa	811.5
288.15 K, 2048 kPa	812.3
288.15 K, 3020 kPa	813
288.15 K, 5097 kPa	814.5
288.15 K, 10002 kPa	818
288.15 K, 11924 kPa	819.3
288.15 K, 15086 kPa	821.4
288.15 K, 17992 kPa	823.4
288.15 K, 19982 kPa	824.6
288.15 K, 21991 kPa	825.9
288.15 K, 25200 kPa	827.9
288.15 K, 28149 kPa	829.7
288.15 K, 30056 kPa	830.8
288.15 K, 32010 kPa	832
288.15 K, 32915 kPa	832.4
288.15 K, 32978 kPa	832.5
288.15 K, 33919 kPa	833
288.15 K, 37967 kPa	835.3
288.15 K, 40071 kPa	836.5
288.15 K, 42013 kPa	837.6
288.15 K, 45099 kPa	839.3
288.15 K, 47977 kPa	840.8
288.15 K, 51983 kPa	842.9
288.15 K, 57976 kPa	846
288.15 K, 62043 kPa	848
288.15 K, 64998 kPa	849.5
288.15 K, 66143 kPa	850
288.16 K, 6990 kPa	815.8
288.16 K, 9100 kPa	817.3
288.16 K, 35048 kPa	833.7
288.16 K, 50052 kPa	842
288.16 K, 54961 kPa	844.5
288.16 K, 59961 kPa	847
293.15 K, 99 kPa	806.7
293.15 K, 891 kPa	807.3
293.15 K, 10027 kPa	814.1
293.15 K, 12006 kPa	815.5
293.15 K, 14925 kPa	817.5
293.15 K, 22039 kPa	822.3
293.15 K, 24969 kPa	824.2
293.15 K, 28001 kPa	826
293.15 K, 30012 kPa	827.2
293.15 K, 31992 kPa	828.4
293.15 K, 33079 kPa	829.1
293.15 K, 34051 kPa	829.6
293.15 K, 37933 kPa	831.9
293.15 K, 40088 kPa	833.1
293.15 K, 42062 kPa	834.2
293.15 K, 45052 kPa	835.9
293.15 K, 48098 kPa	837.6
293.15 K, 50000 kPa	838.6
293.15 K, 51999 kPa	839.7
293.15 K, 55060 kPa	841.3
293.15 K, 58191 kPa	842.9
293.15 K, 62049 kPa	844.8
293.15 K, 64958 kPa	846.3
293.15 K, 66185 kPa	846.9
293.16 K, 304 kPa	806.8
293.16 K, 505 kPa	807
293.16 K, 1026 kPa	807.4
293.16 K, 1994 kPa	808.2
293.16 K, 3011 kPa	808.9
293.16 K, 4984 kPa	810.4
293.16 K, 7001 kPa	811.9
293.16 K, 8967 kPa	813.4
293.16 K, 17912 kPa	819.5
293.16 K, 20060 kPa	821
293.16 K, 33109 kPa	829
293.16 K, 35005 kPa	830.2
293.16 K, 60071 kPa	843.8
298.15 K, 96 kPa	802.3
298.15 K, 291 kPa	802.5
298.15 K, 488 kPa	802.7
298.15 K, 995 kPa	803.1
298.15 K, 2020 kPa	803.9
298.15 K, 9025 kPa	809.3
298.15 K, 10078 kPa	810
298.15 K, 17949 kPa	815.6
298.15 K, 19932 kPa	817
298.15 K, 22061 kPa	818.4
298.15 K, 24991 kPa	820.3
298.15 K, 27926 kPa	822.2
298.15 K, 30121 kPa	823.6
298.15 K, 32061 kPa	824.8
298.15 K, 33040 kPa	825.4
298.15 K, 33088 kPa	825.4
298.15 K, 35034 kPa	826.5
298.15 K, 38020 kPa	828.3
298.15 K, 49981 kPa	835.1
298.15 K, 57978 kPa	839.4
298.15 K, 60039 kPa	840.5
298.15 K, 62048 kPa	841.5
298.15 K, 66054 kPa	843.6
298.16 K, 906 kPa	803
298.16 K, 3037 kPa	804.7
298.16 K, 5064 kPa	806.3
298.16 K, 7065 kPa	807.8
298.16 K, 12017 kPa	811.4
298.16 K, 15244 kPa	813.7
298.16 K, 34019 kPa	825.9
298.16 K, 40026 kPa	829.5
298.16 K, 42019 kPa	830.7
298.16 K, 44993 kPa	832.3
298.16 K, 47933 kPa	834
298.16 K, 52047 kPa	836.3
298.16 K, 54969 kPa	837.8
298.16 K, 65037 kPa	843.1
303.15 K, 98 kPa	798.2
303.15 K, 290 kPa	798.3
303.15 K, 914 kPa	798.8
303.15 K, 1019 kPa	798.9
303.15 K, 2009 kPa	799.7
303.15 K, 3007 kPa	800.5
303.15 K, 4968 kPa	802.1
303.15 K, 8967 kPa	805.2
303.15 K, 17980 kPa	811.8
